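GI50 marks 50% less growth. TGI: total growth inhibition.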
Experiments:
Assay in all cases: NCI tumour cell line growth inhibition, 384-well format
[1] = test system: SNB-19 CNS
[2] = test system: MDA-MB-231 breast
[3] = test system: OVCAR-8 ovarian
[4] = test system: OVCAR-4 ovarian
[5] = test system: NCI-H322M lung
[6] = test system: CAKI-1 renal
[7] = test system: OVCAR-5 ovarian
[8] = test system: DU-145 prostate
[9] = test system: MCF7 breast
[10] = test system: HOP-62 NSCLC
[11] = test system: KM12 colon
[12] = test system: SF-268 CNS
[13] = test system: SN12C renal
[14] = test system: BT-549 breast
[15] = test system: RXF 393 renal
[16] = test system: UO-31 renal
[17] = test system: U251 glioblastoma
[18] = test system: SK-MEL-28 melanoma
[19] = test system: NCI-H522 lung
[20] = test system: SK-MEL-5 melanoma
[21] = test system: SK-MEL-2 melanoma
[22] = test system: MDA-MB-435 melanoma
[23] = test system: HS 578T breast
[24] = test system: K-562 leukemia
[25] = test system: OVCAR-3 ovarian
[26] = test system: 786-0 renal
[27] = test system: SW-620 colon
[28] = test system: UACC-62 melanoma
[29] = test system: EKVX NSCLC
[30] = test system: NCI-H23 lung
[31] = test system: SF-539 CNS
[32] = test system: PC-3 prostate
[33] = test system: A498 renal
[34] = test system: HL-60(TB) leukemia
[35] = test system: SNB-75 CNS
[36] = test system: RPMI-8226 leukemia
[37] = test system: NCI-H226 lung
[38] = test system: CCRF-CEM leukemia
[39] = test system: ACHN renal
[40] = test system: HT29 colon
[41] = test system: LOX IMVI melanoma
[42] = test system: NCI/ADR-RES ovarian
[43] = test system: MOLT-4 leukemia
[44] = test system: NCI-H460 NSCLC
[45] = test system: MALME-3M melanoma
[46] = test system: T-47D breast
[47] = test system: SF-295 CNS
[48] = test system: IGROV1 ovarian
[49] = test system: HOP-92 NSCLC
[50] = test system: UACC-257 melanoma
[51] = test system: HCT-15 colon
[52] = test system: M14 melanoma
[53] = test system: HCT-116 colon
[54] = test system: A549 NSCLC
[55] = test system: COLO 205 colon
[56] = test system: HCC-2998 colon
[57] = test system: MDA-MB-468 breast
[58] = test system: SK-OV-3 ovarian
[59] = test system: TK-10 renal

Which results are given for `C#CC(F)(F)[C@]1(O)CC[C@H]2[C@@H]3CCC4=CC(=O)CCC4=C3[C@@H](c3ccc(C4CC4)cc3)C[C@@]21C`?
GI50 [1]: 3.02 µM; TGI [1]: 8.61 µM; GI50 [2]: < 0.01 µM; TGI [2]: < 0.01 µM; GI50 [3]: 0.0616 µM; TGI [3]: 0.934 µM; GI50 [4]: < 0.01 µM; TGI [4]: < 0.01 µM; GI50 [5]: 2.48 µM; TGI [5]: 6.89 µM; GI50 [6]: < 0.01 µM; TGI [6]: < 0.01 µM; GI50 [7]: 0.574 µM; TGI [7]: 2.41 µM; GI50 [8]: 1.54 µM; TGI [8]: 3.18 µM; GI50 [9]: 1.48 µM; TGI [9]: 7.97 µM; GI50 [10]: < 0.01 µM; TGI [10]: 0.0411 µM; GI50 [11]: 0.012 µM; TGI [11]: 0.0255 µM; GI50 [12]: 0.0112 µM; TGI [12]: 0.0258 µM; GI50 [13]: 2.01 µM; TGI [13]: 4.06 µM; GI50 [14]: 0.0203 µM; TGI [14]: 0.0422 µM; GI50 [15]: < 0.01 µM; TGI [15]: < 0.01 µM; GI50 [16]: < 0.01 µM; TGI [16]: < 0.01 µM; GI50 [17]: 0.0975 µM; TGI [17]: 0.444 µM; GI50 [18]: 2.03 µM; TGI [18]: 4.34 µM; GI50 [19]: < 0.01 µM; TGI [19]: < 0.01 µM; GI50 [20]: 1.7 µM; TGI [20]: 3.1 µM; GI50 [21]: 0.0646 µM; TGI [21]: 0.244 µM; GI50 [22]: 1.25 µM; TGI [22]: 3.51 µM; GI50 [23]: 0.377 µM; TGI [23]: 1.51 µM; GI50 [24]: 0.111 µM; TGI [24]: 0.32 µM; GI50 [25]: < 0.01 µM; TGI [25]: < 0.01 µM; GI50 [26]: 0.0107 µM; TGI [26]: 0.024 µM; GI50 [27]: 0.334 µM; TGI [27]: 1.39 µM; GI50 [28]: 0.0176 µM; TGI [28]: 0.0328 µM; GI50 [29]: < 0.01 µM; TGI [29]: 0.0109 µM; GI50 [30]: < 0.01 µM; TGI [30]: < 0.01 µM; GI50 [31]: 0.0172 µM; TGI [31]: 0.032 µM; GI50 [32]: 0.0196 µM; TGI [32]: 0.0518 µM; GI50 [33]: 0.0132 µM; TGI [33]: 0.0261 µM; GI50 [34]: < 0.01 µM; TGI [34]: < 0.01 µM; GI50 [35]: 0.0142 µM; TGI [35]: 0.0282 µM; GI50 [36]: < 0.01 µM; TGI [36]: 0.0186 µM; GI50 [37]: 0.218 µM; TGI [37]: 2 µM; GI50 [38]: < 0.01 µM; TGI [38]: < 0.01 µM; GI50 [39]: < 0.01 µM; TGI [39]: < 0.01 µM; GI50 [40]: 0.267 µM; TGI [40]: 1.18 µM; GI50 [41]: < 0.01 µM; TGI [41]: < 0.01 µM; GI50 [42]: 0.012 µM; TGI [42]: 0.0448 µM; GI50 [43]: 0.0174 µM; TGI [43]: 0.0316 µM; GI50 [44]: 1.85 µM; TGI [44]: 3.41 µM; GI50 [45]: < 0.01 µM; TGI [45]: < 0.01 µM; GI50 [46]: 0.0806 µM; TGI [46]: 1.77 µM; GI50 [47]: 0.0302 µM; TGI [47]: 0.0834 µM; GI50 [48]: < 0.01 µM; TGI [48]: < 0.01 µM; GI50 [49]: < 0.01 µM; TGI [49]: < 0.01 µM; GI50 [50]: 0.459 µM; TGI [50]: 2.11 µM; GI50 [51]: 0.245 µM; TGI [51]: 2.3 µM; GI50 [52]: 0.0376 µM; TGI [52]: 0.146 µM; GI50 [53]: 1.76 µM; TGI [53]: 3.35 µM; GI50 [54]: 0.0395 µM; TGI [54]: 0.19 µM; GI50 [55]: 1.32 µM; TGI [55]: 4.58 µM; GI50 [56]: 0.0239 µM; TGI [56]: 0.0507 µM; GI50 [57]: < 0.01 µM; TGI [57]: < 0.01 µM; GI50 [58]: 0.0342 µM; TGI [58]: 0.111 µM; GI50 [59]: 0.0214 µM; TGI [59]: 0.104 µM

From PubChem BioAssay (NCI)
